Laboratory results from US20040055024A1, “Conditional mutants of influenza virus M2 protein” (Medical Research Council, priority 1998, published 2004).

Legend:
murine MEL cells = assay type: cell-based, mouse
thymic rudiments = experiment: Foetal thymic organ culture of transgenic embryos in the presence of rimantadine; assay type: cell-based, mouse; conditions: thymic lobes of 15 day embryos, 7 to 10 days culture with rimantadine, FACS
From the text: Opin. Immunol. 6:293-297.
Embryo sacs are removed from 15-day pregnant mice and the embryos released by cutting the umbilical cord. The embryos are stored on ice; non-embryo tissue is discarded. Any abnormal embryos, or asynchronous embryos as judged by size, are also discarded at this stage.
Foetal thymic lobes are dissected from the embryo and cultured on Costar filters (Coming) on RPMI medium. The filters are transferred to a new well of medium every day during the experiment.
At between 7 and 10 days, the thymic lobes are harvested, transferred to an eppendorf tube containing 200 μl medium, and the cells separated by teasing out mechanically. The cells are then analysed by FACS as described above.
In a second series of experiments, the thymic rudiments are cultured in the presence of rimantadine, and the cells analysed by FACS as described above.

[1] = test system: T-lymphocyte development (thymus, spleen); conditions: mouse, in vivo

Structure (SMILES): CC(N)C12CC3CC(CC(C3)C1)C2 (stereo not shown) [Rimantadine]
- cell kinetics after induction (murine MEL cells): preceded by two cell doublings before terminal differentiation and growth arrest
- cloning of M2(H37A) mutant in MEL cells (murine MEL cells): the mutant can be cloned
- rescue of T-cell production (thymic rudiments): able to rescue T-cell production in the thymic rudiments
- rescue of the lack of T-cells by administration of rimantadine [1]: not rescuable
